The assay concerns growing MVs (neovessels). Briefly: Effect of DYRK3 inhibition on MV growth in 3D culture. The assay is classed as cell-based, human. How it is done:
FIG. 5. Effect of DYRK3 inhibition on MV growth. Phase contrast images of MVs after 9 days of culture, with a single 3-hour exposure of DYRK3 inhibitor after initial neovessel sprouting (day 4). […] Scale=100 μm. Arrows point to neovessels.
For all assays, MVs isolated from human adipose tissue via a limited collagen digestion are embedded (100,000 MV/ml) in a 3 mg/ml collagen gel. This formulation is compatible with a variety of multi-well plates. Whenever possible, assessments are made daily over the course of 1 week, including image acquisition for HCA.
DYRK3 and angiogenesis: To further explore DYRK3 in this model, growing MVs are treated with the small molecule GSK626616, a known DYRK3 inhibitor. Cultures with growing neovessels (in RPMI with B27 and 50 ng/ml VEGF) were treated with 10 μM GSK626616 for 3 hours, and then returned to medium without inhibitor for an additional 6 days.

Where [1] appears, read: 10 μM for 3 hours, then medium without inhibitor for additional 6 days, RPMI with B27 and 50 ng/ml VEGF, qualitative, vs untreated controls.

SMILES strings stand for the structures.

Turning to `O=C1NC(=Nc2c(Cl)cccc2Cl)S/C1=C\c1ccc2nccnc2c1` [GSK626616], under setting [1], the “impact on parent MV” value is “did not impact parent MV”, the neovessel growth result is recorded as “stopped neovessel growth” and the neovessel regression result is listed as “may have even caused neovessel regression”. Besides, for the setting “after 9 days of culture, single 3-hour exposure after initial neovessel sprouting (day 4)”, the “neovessels apparent in phase contrast images” value is “Fewer neovessels are apparent”.

(Values after patent US20220017870A1, “METHODS OF IDENTIFYING THERAPEUTIC TARGETS FOR TREATING ANGIOGENESIS” (Advanced Solutions Life Sciences, LLC, priority 2020, published 2022).)
